Laboratory results from ChEMBL document CHEMBL1201862, “PubChem BioAssay data set” (2004).
Calls of active or inactive are those of the source.

What was measured:
Assay type in all cases: functional
[1] = molecular target: T1, Sentrin-specific protease 6 (Homo sapiens, UniProt Q9GZR1);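 also: Luminescence-based dose-response confirmatory assay of SENP6 inhibition, following up an ultra-high-throughput screen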
T1 sequence (Q9GZR1 whole entry): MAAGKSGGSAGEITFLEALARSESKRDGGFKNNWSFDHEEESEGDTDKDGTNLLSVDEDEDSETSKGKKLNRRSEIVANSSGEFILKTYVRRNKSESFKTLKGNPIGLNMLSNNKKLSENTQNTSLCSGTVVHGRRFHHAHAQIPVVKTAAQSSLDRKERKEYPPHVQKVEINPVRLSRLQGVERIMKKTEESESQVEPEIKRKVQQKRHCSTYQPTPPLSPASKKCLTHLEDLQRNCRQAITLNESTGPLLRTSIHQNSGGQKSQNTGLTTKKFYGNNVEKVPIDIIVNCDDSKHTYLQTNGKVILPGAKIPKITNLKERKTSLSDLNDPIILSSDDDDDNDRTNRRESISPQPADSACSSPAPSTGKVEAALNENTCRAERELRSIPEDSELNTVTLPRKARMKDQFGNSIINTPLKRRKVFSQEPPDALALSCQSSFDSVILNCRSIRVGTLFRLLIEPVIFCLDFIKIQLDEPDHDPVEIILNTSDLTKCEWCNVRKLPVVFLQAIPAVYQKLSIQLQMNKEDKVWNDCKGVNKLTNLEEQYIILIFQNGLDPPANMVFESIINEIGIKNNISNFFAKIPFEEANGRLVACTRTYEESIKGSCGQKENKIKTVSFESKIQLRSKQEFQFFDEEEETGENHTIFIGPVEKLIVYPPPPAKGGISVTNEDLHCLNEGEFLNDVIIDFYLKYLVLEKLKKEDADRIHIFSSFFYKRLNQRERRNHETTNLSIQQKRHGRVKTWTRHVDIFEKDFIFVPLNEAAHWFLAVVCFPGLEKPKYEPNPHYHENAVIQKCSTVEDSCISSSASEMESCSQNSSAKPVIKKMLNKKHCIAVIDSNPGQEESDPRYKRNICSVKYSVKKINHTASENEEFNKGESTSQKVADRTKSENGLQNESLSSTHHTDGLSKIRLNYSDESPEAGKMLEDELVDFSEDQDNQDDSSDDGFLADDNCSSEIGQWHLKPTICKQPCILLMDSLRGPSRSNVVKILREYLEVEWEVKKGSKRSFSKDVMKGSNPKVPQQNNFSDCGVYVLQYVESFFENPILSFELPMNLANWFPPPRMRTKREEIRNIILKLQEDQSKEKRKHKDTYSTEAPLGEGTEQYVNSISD

[2] = molecular target: T2, Replicative DNA helicase DnaB (Mycobacterium tuberculosis, UniProt P9WMR3); experiment: DnaB intein splicing inhibitors, dose response, biochemical, cell-free fluorescence (AID 449749)
T2 sequence (P9WMR3 whole entry): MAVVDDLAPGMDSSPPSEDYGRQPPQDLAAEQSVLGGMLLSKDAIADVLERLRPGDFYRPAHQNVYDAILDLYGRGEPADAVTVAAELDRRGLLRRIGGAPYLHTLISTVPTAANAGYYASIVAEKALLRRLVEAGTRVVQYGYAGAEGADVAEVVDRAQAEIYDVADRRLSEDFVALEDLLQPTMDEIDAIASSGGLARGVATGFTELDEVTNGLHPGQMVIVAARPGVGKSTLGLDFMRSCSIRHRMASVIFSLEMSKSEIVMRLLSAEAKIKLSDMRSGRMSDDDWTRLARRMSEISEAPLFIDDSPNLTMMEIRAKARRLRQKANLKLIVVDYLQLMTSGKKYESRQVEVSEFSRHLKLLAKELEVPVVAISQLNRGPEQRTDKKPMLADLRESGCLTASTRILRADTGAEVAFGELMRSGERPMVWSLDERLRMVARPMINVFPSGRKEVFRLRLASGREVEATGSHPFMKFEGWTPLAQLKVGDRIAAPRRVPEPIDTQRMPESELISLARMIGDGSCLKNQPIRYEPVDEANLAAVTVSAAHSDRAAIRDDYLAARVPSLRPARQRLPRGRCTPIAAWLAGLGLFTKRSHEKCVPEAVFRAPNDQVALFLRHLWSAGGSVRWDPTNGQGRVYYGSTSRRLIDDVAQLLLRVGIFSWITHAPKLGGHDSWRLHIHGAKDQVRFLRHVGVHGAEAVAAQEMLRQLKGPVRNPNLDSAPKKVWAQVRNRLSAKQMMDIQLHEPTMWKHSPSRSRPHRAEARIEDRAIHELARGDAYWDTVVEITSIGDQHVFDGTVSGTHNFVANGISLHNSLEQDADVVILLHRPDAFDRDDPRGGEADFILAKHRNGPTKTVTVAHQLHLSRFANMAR

Protein RecA = molecular target: T3, Protein RecA (Mycobacterium tuberculosis, UniProt P9WHJ3); experiment: Fluorescence Cell-Free Homogeneous Dose Retest to Identify Inhibitors of RecA-Intein Splicing Activity. [Related pubchem assays (depositor defined):AID2097, AID2223, AID489010, AID492950]
T3 sequence (P9WHJ3 whole entry): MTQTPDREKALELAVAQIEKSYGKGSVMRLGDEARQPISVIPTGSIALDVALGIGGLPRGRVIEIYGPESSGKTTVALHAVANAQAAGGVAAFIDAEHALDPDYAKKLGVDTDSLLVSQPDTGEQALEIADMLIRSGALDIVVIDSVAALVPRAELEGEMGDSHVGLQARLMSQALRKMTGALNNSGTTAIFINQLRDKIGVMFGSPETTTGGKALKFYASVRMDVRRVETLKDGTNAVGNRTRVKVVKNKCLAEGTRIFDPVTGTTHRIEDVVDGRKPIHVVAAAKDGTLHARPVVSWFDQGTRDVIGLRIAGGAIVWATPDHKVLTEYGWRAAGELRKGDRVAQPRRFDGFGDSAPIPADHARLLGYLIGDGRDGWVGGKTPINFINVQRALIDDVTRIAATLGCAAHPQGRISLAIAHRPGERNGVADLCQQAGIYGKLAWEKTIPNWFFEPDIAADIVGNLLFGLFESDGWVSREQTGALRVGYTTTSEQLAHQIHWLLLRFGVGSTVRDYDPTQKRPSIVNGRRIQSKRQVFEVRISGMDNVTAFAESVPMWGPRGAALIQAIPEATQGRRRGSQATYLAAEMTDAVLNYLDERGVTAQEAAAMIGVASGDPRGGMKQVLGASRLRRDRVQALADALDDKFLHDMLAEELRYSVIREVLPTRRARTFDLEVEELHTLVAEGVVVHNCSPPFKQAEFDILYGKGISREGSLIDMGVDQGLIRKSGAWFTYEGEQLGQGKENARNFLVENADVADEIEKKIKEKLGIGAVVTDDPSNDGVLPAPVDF

Row | Structure (SMILES) | IC50 [1] | AC50 [2] | EC50 (Protein RecA)
1 | Cc1ccc(C(=O)NNc2cc(N3CCCC3)nc(N3CCCC3)n2)cc1 | 838 nM (active) | – | –
2 | O=C1/C(=N\c2cccc(O)c2)C(N2CCCCC2)=C(O)c2ccccc21 | – | 5580 nM (active) | 364 nM (active)
3 | COC(=O)c1cccc(-c2ccc(C(c3c(C)n[nH]c3O)c3c(C)n[nH]c3O)o2)c1 | – | 398 nM (active) | 175 nM (active)
4 | Cc1cc(/C=C2\SC(=S)N(C)C2=O)c(C)n1-c1ccc(O)cc1 | 4660 nM (active) | – | –
